How the values were obtained:
[1] = system: E. coli strain 35218; test: Carbapenem test, Triton fixation buffer and BacUni QuickFISH staining (Example 4); assay type: cell-based; conditions: FIG. 9; E. coli 35218; 10 μg/ml
Description: (§1) An isolated colony from an overnight Tryptocase Soy Agar (TSA) plate for each bacteria was suspended in 1 ml Tryptocase Soy Broth (TSB) in a 5 ml BD polystyrene round bottom tube. TSB cultures were incubated at 37° C. for 1.5 hours shaking. […] of each stationary-phase culture were transferred to 2 ml Eppendorf microcentrifuge tubes containing 500 μl of Normal Saline (BD); or 500 μl Normal Saline with imipenem, ertapenem, or meropenem at a concentration of […], […], or 40 μg/ml (26.67 μg/ml final concentration). Tubes were inverted then incubated at 37° C. stagnant for thirty minutes. Then 10 μl from each tube was pipetted onto plain glass slide on a 55° C. heat block, followed by 25 μl fixation buffer (0.5% T×100, 100 mM Tris pH 9, 24% Ethanol, and 10 mM NaCl); slide is incubated until sample is dry. Ten μl of BacUni QuickFISH hybridization buffer was added to each slide followed by a 22×22 mm coverslip. The slide was then incubated at 55° C. for 15 minutes. The slides were viewed on a fluorescence microscope 60× oil immersion on Dual TxR/FITC. Images were taken with a 1 second exposure.
(§2) The control fixation in this experiment has all the same components, except no Triton X-100. This was done to assess whether the selective lysis step is required to resolve a difference between susceptible and resistant bacteria.

[2] = system: K. pneumoniae strain BAA2146 NDM+; test: as above; assay type: cell-based
Description: as §1, §2

[3] = system: K. pneumoniae strain 13882; test: as above; assay type: cell-based; conditions: K. pneumoniae 13882
Description: as §1, §2

[4] = system: K. pneumo KPC 41217; test: Selective lysis test, OD600 turbidity (Example 1); assay type: cell-based, Klebsiella pneumoniae
Description: (§3) An isolated colony from an overnight Tryptocase Soy Agar (TSA) plate of each bacterial strain was suspended in 1 ml Tryptocasc Soy Broth (TSB) in a 5 ml BD polystyrene round bottom tube. TSB cultures were incubated shaking at 37° C. overnight. Ten of the overnight culture was inoculated into lml TSB and incubated shaking at 37° C. for three hours. Two […] aliquots of each log-phase culture were then transferred to two 2 ml Eppendorf microcentrifuge tubes. One tube contained 5000 of Normal Saline (BD); the second tube contained 5000 Normal Saline with meropenem at 10 μg/ml (final concentration of meropenem of 6.67 10 μg/ml). Tubes were inverted and then incubated at 37° C. stagnant for thirty minutes. Then […] of lysis buffer (0.5% SDS in PSB) (final concentration of SDS of 0.125%) was added to each tube and the tubes were vortexed for 5 seconds. Post incubation, all tubes were spun at 10000 G for 5 minutes. Supernatant was decanted and the pellet resuspended in Normal Saline. Tubes were vortexed again. OD600 was measured using Eppendorf uvettes in a spectrophotometer. The delta between the OD600 of the normal saline control and the OD600 for the test sample exposed to meropenem in normal saline was used to determine susceptibility of the bacterial strain to meropenem.
(§4) The tested resistant strains were Klebsiella pneumoniae carbapenemase (KPC)-producing bacteria (abbreviated “KPC”), KPC-producing Klebsiella oxytoca (abbreviated “KPC K. oxy), and Klebsiella pneumoniae producing Metallo-beta-lactamase-1 (NDM-1) (abbreviated “NDM”).

[5] = system: K. pneumo KPC 24605; test: Selective lysis test, OD600 turbidity (Example 1); assay type: cell-based, Klebsiella pneumoniae
Description: as §3, §4

[6] = system: K. pneumo NDM 2146; test: Selective lysis test, OD600 turbidity (Example 1); assay type: cell-based, Klebsiella pneumoniae
Description: as §3, §4

[7] = system: K. pneumo KPC 1705; test: Selective lysis test, OD600 turbidity (Example 1); assay type: cell-based, Klebsiella pneumoniae
Description: as §3, §4

[8] = system: K. pneumo KPC 4121; test: Selective lysis test, OD600 turbidity (Example 1); assay type: cell-based, Klebsiella pneumoniae
Description: as §3, §4

[9] = system: K. pneumo KPC 65707; test: Selective lysis test, OD600 turbidity (Example 1); assay type: cell-based, Klebsiella pneumoniae
Description: as §3, §4

[10] = system: K. pneumo KPC KPC12; test: Selective lysis test, OD600 turbidity (Example 1); assay type: cell-based, Klebsiella pneumoniae
Description: as §3, §4

[11] = system: E. aero 13048; test: Selective lysis test, OD600 turbidity (Example 1); assay type: cell-based, Enterobacter aerogenes
Description: as §3

[12] = OD600 vs control without meropenem
[13] = meropenem 10 μg/ml, 30 min, SDS lysis buffer + vortex

C[C@@H](O)[C@H]1C(=O)N2C(C(=O)O)=C(S[C@@H]3CN[C@H](C(=O)N(C)C)C3)[C@H](C)[C@H]12 [meropenem]
test result (susceptibility or resistance) by BacUni QuickFISH staining [1]: detect susceptibility
BacUni QuickFISH stained intact cells after meropenem and fixation buffer ([2]; FIG. 8, 10 μg/ml meropenem, fixation buffer with 0.5% Triton X-100): near complete absence of BacUni QuickFISH™ stained intact cells
test result (susceptibility or resistance) by BacUni QuickFISH staining ([2]; FIG. 11, 10 μg/ml): detect resistance
BacUni QuickFISH stained intact cells after meropenem and fixation buffer ([3]; FIG. 7, 10 μg/ml meropenem, fixation buffer with 0.5% Triton X-100): near complete absence of BacUni QuickFISH™ stained intact cells
test result (susceptibility or resistance) by BacUni QuickFISH staining ([3]; FIG. 10, 10 μg/ml): detect susceptibility
R or S [4]: R
% Change [4, 12]: 5%
Mero OD600 [4, 13]: 1.764
R or S [5]: R
% Change [5, 12]: 6%
Mero OD600 [5, 13]: 2.0363
R or S [6]: R
% Change [6, 12]: 18%
Mero OD600 [6, 13]: 1.576
R or S [7]: R
% Change [7, 12]: −32%
Mero OD600 [7, 13]: 1.65
R or S [8]: R
% Change [8, 12]: −3%
Mero OD600 [8, 13]: 1.734
R or S [9]: R
% Change [9, 12]: 12%
Mero OD600 [9, 13]: 1.887
R or S [10]: R
% Change [10, 12]: 2%
Mero OD600 [10, 13]: 1.844
R or S [11]: S (a percentage change of greater than about 85% indicates a strain is susceptible)
% Change [11, 12]: 97%
Mero OD600 [11, 13]: 0.077
